{
  "source": "paper PMC7694773",
  "about": "“Synthesis, 3D-QSAR, and Molecular Modeling Studies of Triazole Bearing Compounds as a Promising Scaffold for Cyclooxygenase-2 Inhibition” (Pharmaceuticals, 2020)",
  "key": {"human recombinant COX-2": {"molecular_target": "T1, human recombinant COX-2 (Homo sapiens, UniProt P35354)", "T1 construct": "purchased Cayman Chemical 560131", "T1 sequence (P35354 18-604)": "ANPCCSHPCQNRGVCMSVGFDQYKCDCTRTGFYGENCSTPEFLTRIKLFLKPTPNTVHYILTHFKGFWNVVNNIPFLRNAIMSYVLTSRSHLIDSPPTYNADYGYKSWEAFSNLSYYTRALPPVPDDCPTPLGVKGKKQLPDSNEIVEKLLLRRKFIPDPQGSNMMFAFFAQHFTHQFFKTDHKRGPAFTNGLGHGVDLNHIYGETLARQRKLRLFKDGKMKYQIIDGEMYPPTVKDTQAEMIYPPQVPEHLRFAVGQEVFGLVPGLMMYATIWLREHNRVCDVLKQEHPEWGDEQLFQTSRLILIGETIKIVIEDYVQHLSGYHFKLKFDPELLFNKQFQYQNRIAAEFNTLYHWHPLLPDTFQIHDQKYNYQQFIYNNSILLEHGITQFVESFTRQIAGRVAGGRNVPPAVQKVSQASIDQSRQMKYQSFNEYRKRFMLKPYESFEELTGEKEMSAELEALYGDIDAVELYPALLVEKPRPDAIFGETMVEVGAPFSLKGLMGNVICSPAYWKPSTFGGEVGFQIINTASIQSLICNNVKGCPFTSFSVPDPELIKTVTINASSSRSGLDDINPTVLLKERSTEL", "test": "In vitro COX-2 inhibition, enzyme immunoassay kit (Cayman item no. 560131)", "type": "biochemical", "source_text": "(§1) The in vitro COX-1/COX-2 isozyme inhibition studies measure the ability of tested compounds to inhibit bovine COX-1 and human recombinant COX-2 using an enzyme immunoassay (COX inhibitor screening assay kit, item no. 560131) according to the manufacturer’s instructions. […]."}, "egg albumin": {"molecular_target": "T2, egg albumin (Gallus gallus, UniProt P01012)", "T2 sequence (P01012 1-386)": "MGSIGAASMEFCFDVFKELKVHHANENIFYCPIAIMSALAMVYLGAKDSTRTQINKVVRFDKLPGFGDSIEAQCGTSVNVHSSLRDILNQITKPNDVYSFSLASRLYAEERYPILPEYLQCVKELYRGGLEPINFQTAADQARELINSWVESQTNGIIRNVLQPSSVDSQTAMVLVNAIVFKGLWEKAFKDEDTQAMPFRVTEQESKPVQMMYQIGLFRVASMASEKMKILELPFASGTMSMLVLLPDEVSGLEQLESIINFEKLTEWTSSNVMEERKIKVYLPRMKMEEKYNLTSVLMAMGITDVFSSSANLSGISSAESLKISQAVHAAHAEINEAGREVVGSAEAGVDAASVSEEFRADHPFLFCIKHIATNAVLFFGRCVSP", "test": "In situ anti-inflammatory assay: inhibition of protein (albumin) denaturation", "experimental": "Protein denaturation is used for the evaluation of anti-inflammatory activity. In this methodology, generally, tertiary and secondary protein structures will typically be destroyed by the application of an external molecule or stress. The biological function of most bio-proteins is lost if it is denatured. It is well reported that a basis of inflammation is denaturation of protein.\nThe reaction mixture is molecules with serial dilutions (1000, 100, 10, 1, 0.1 µM), phosphate buffered saline (PBS; pH 6.4), and egg albumin. The control used was double distilled water (equal volume). […] After attaining ambient temperature, the absorbance of samples was measured spectrophotometrically at 660 nm using vehicle as blank. […] The experiment was performed in triplicate. Percent inhibition of protein denaturation was calculated using the Equation Inhibition (%) of protein denaturation inhibition (%) = (AC − AS)/AC × 100 where AC: absorbance of control, AS: absorbance of sample."}, "bovine COX-1": {"molecular_target": "T3, bovine COX-1 (Ovis aries, UniProt P05979)", "T3 construct": "purchased Cayman Chemical 560131", "T3 sequence (P05979 25-600)": "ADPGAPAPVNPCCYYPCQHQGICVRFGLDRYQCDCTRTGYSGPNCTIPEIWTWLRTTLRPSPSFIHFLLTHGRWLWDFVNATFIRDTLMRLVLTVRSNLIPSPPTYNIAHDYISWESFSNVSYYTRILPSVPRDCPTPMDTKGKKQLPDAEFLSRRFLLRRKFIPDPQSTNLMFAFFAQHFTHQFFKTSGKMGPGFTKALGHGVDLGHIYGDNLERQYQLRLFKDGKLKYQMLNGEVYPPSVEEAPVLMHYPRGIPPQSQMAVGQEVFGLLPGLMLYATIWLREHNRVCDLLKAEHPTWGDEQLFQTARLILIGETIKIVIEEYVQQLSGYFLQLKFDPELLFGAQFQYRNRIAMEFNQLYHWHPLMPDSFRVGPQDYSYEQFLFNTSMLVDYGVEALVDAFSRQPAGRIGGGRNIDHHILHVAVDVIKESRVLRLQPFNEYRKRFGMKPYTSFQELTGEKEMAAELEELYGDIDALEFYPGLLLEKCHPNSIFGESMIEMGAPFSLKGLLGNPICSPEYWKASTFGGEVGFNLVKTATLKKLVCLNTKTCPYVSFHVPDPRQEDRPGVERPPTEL", "test": "In vitro COX-1 inhibition, enzyme immunoassay kit (Cayman item no. 560131)", "type": "biochemical", "settings": "mean of two determinations", "source_text": "as §1"}},
  "note": "Values joined by “and” are separate entries in the source; they are usually repeats but may differ in a detail not shown here. Equal entries are not always repeated. Where two headings read alike, the source gives them in different places.",
  "data": [
    {"smiles": "COc1ccc(C=Nn2c(COc3ccc4ccccc4c3)nnc2Sc2cnc(N)s2)cc1", "note": "[Compound 12d, 5-((4-((4-methoxybenzylidene)amino)-5-((naphthalen-2-yloxy)methyl)-4H-1,2,4-triazol-3-yl)thio)thiazol-2-amine]", "values": [
      {"measurement": "melting point", "result": "69 to 70", "unit": "°C"},
      {"measurement": "COX-2 S.I. (selectivity index, COX-1 IC50/COX-2 IC50)", "setting": "human recombinant COX-2", "result": "311.0 and 325.0"},
      {"measurement": "IC50", "setting": "human recombinant COX-2; human recombinant COX-2, mean of two determinations, read-out: IC50 COX-2", "result": 0.04, "unit": "µM"},
      {"measurement": "IC50", "setting": "human recombinant COX-2; pIC50 = −Log (IC50) of the COX-2 IC50, read-out: Activity (experimental pIC50, COX-2) (converted)", "result": "0.0418 µM and 0.0401 µM"},
      {"measurement": "LogIC50 protein denaturation", "setting": "egg albumin; GraphPad prism curve fit, IC50 in µM (Figure 3)", "result": -0.008534},
      {"measurement": "IC50", "setting": "egg albumin; non-linear regression, sigmoidal dose-inhibition fit, GraphPad prism", "result": "0.981 µM and 0.98 µM"},
      {"measurement": "inhibition at 1000 µM", "setting": "egg albumin; protein denaturation, conc. 1000 µM, three replicates, read-out: % of inhibition ± SEM at conc. 1000", "result": 91.2, "unit": "%"},
      {"measurement": "% of inhibition ± SEM at conc. 0.1", "setting": "egg albumin; protein denaturation, conc. 0.1 (µM), three replicates", "result": "29.21±1.12", "unit": "%"},
      {"measurement": "% of inhibition ± SEM at conc. 1", "setting": "egg albumin; protein denaturation, conc. 1 (µM), three replicates", "result": "59.20±1.34", "unit": "%"},
      {"measurement": "% of inhibition ± SEM at conc. 10", "setting": "egg albumin; protein denaturation, conc. 10 (µM), three replicates", "result": "72.12±1.27", "unit": "%"},
      {"measurement": "% of inhibition ± SEM at conc. 100", "setting": "egg albumin; protein denaturation, conc. 100 (µM), three replicates", "result": "89.31±1.26", "unit": "%"},
      {"measurement": "IC50", "setting": "bovine COX-1", "result": 13, "unit": "µM"}
    ]}
  ]
}
